This note sets out measurements from patent US20090131481A1, “Transcription Factor Modulating Compounds and Methods of Use Thereof” (Paratek Pharmaceuticals, Inc., published 2009).

One data set addresses T1, Rob (Escherichia coli, UniProt P0ACI0).
T1 sequence (P0ACI0 1-289): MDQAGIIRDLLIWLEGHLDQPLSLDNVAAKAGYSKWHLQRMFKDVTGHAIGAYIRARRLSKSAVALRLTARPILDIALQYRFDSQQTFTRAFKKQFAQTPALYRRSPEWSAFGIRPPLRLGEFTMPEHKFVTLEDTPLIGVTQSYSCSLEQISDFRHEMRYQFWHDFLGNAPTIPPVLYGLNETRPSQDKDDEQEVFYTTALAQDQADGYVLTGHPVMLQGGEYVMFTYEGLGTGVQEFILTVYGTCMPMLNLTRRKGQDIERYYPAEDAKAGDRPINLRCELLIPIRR
In words: Chemiluminescence-based Rob-DNA binding assay. Also noted: species or system E. coli. The settings on record: Table 10.

In another data set the target is T2, MarA (Escherichia coli, UniProt P0ACH5).
T2 sequence (P0ACH5 1-127): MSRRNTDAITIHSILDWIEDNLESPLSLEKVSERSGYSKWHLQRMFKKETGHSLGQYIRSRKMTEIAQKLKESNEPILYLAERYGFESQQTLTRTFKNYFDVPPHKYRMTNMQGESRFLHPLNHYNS
In words: Chemiluminescence-based MarA-DNA binding assay. The settings on record: Table 10. Also noted: species or system E. coli.

The next data set addresses T3, Rma (Salmonella typhimurium, UniProt H9L484).
T3 construct: fused on or other part: 6-histidine tag
T3 sequence (H9L484 1-113): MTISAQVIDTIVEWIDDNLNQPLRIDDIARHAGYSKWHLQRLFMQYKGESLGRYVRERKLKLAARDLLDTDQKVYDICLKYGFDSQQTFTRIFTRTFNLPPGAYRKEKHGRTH
The data set can be described thus: Chemiluminescence-based Rma-DNA binding assay. Further details: species or system S. typhimurium. The conditions noted are these: Table 10.

The target in a further data set is T4, SoxS (Escherichia coli, UniProt P0A9E2).
T4 sequence (P0A9E2 1-107): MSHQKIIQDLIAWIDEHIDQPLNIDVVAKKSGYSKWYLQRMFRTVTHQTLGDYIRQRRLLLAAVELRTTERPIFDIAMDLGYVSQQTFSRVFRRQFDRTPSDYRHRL
In words: Chemiluminescence-based SoxS-DNA binding assay. Also noted: made in house; species or system E. coli.

Data set [1] has as its target T5, ExsA (Pseudomonas aeruginosa, UniProt P26993).
T5 construct: made in house
T5 sequence (P26993 1-278): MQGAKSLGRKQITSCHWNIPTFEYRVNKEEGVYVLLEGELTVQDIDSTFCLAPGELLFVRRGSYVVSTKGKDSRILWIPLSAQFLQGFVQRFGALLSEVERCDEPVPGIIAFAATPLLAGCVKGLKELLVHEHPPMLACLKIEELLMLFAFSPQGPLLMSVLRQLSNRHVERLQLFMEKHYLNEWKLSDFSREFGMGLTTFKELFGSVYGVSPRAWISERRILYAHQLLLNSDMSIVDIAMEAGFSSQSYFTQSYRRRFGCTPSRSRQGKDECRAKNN
In words: Chemiluminescence-based ExsA-DNA binding assay. Also noted: species or system P. aeruginosa. The conditions noted are these: read-out: ExsA EC50.

The target of the next data set is T6, SlyA (Escherichia coli, UniProt P0A8W2).
T6 sequence (P0A8W2 1-144): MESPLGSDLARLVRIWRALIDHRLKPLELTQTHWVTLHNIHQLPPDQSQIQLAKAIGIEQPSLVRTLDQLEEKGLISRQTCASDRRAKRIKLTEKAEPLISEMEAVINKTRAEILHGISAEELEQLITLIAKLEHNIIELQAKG
In words: biochemical. The data set is classed as binding, E. coli.

The next data set relates to uncut plasmid DNA. The data set can be described thus: Qualitative agarose gel DNA intercalation assay. Format: binding. The settings on record: 100 ng uncut plasmid DNA, compared with a known DNA intercalator.
Another data set has as its system E. coli UPEC strain C189. The data set can be described thus: Ascending pyelonephritis model of infection (Example 3). The data set is classed as in vivo. The conditions noted are these: female CD1 mice, oral dosing at infection and once a day for 4 days, 5-day infection.
A further data set addresses LcrF (VirF) (Yersinia pestis, UniProt P28808). In words: biochemical. Format: binding, Y. pseudotuberculosis. The conditions noted are these: EC50 for inhibition of LcrF(VirF)-DNA binding.
Another data set has as its system Y. pseudotuberculosis. In words: microbe, parasite or virus in culture. The settings on record: Yersinia pseudotuberculosis, J774, read-out: % Cytotoxicity.
Data set [2] deals with E. coli C189 (clinical cystitis isolate). In words: E. coli ascending pyelonephritis model, compound GM (Example 4). The data set is classed as in vivo. The settings on record: CD1 mice.
The subject of another data set is P. aeruginosa PA103. In words: Lethal P. aeruginosa pneumonia model in mice. Format: in vivo. The conditions noted are these: IP 25 mg/kg, 10^6 organisms intranasally, FIG. 5 and 6.
Data set [3] deals with ExsA (Pseudomonas aeruginosa, UniProt P26993 P26993:1-278). The data set can be described thus: LANCE TR-FRET; same buffer; basis of inhibitor screen. The conditions noted are these: tags: 6xHis; label: N-term (5') biotin.
[4] abbreviates: dose response analysis (footnote c), read-out: in vitro SoxS activity: concentration necessary to inhibit DNA-protein binding by 50% (EC50).

Read-outs that look alike come from different tables or passages of the source. Where only a bound is given, the exact number is not on record here.

LcrF (VirF), sequence (P28808 whole entry, looked up): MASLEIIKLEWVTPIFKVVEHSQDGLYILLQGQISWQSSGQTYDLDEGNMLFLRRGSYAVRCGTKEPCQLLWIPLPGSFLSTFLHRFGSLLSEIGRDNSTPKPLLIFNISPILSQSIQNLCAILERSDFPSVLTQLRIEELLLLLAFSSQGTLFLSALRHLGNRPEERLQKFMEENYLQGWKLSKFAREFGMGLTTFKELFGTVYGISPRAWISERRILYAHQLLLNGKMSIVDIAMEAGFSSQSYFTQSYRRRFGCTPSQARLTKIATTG

As for `CN(C)c1ccc(C(=O)Nc2ccc(-c3nc4ccc([N+](=O)[O-])cc4n3O)cc2)cc1` [AH], the EC50 on Rob is 1 to 4.9 µM; at MarA it was 1 to 4.9 µM; on Rma it was 1 to 4.9 µM; at SoxS (Table 10, read-out: SoxS EC50), less than 0.9 µM; on SoxS (setting [4]) it was less than 0.9 µM; on ExsA [1] (Table 7, cell-free system) it was greater than 25 µM. In addition, the EC50 at ExsA [1] (Table 10) was 1 to 4.9 µM; on SlyA it was greater than 5 µM.
Turning to `O=[N+]([O-])c1ccc2nc(-c3ccc(-c4ccccc4)o3)n(O)c2c1` [BQ], the “ability to intercalate DNA” value in the data set with uncut plasmid DNA is recorded as “not found to intercalate DNA”. The EC50 on Rob was greater than 5 µM; on MarA, greater than 5 µM; on Rma, greater than 5 µM; on SoxS (Table 10, read-out: SoxS EC50), 1 to 4.9 µM; at SoxS (setting [4]) it was greater than 5 µM; on ExsA [1] (Table 10), greater than 5 µM. This molecule also yielded an EC50 on SlyA greater than 5 µM. The “Efficacy (log10 decrease in the CFU/g kidney tissue)” value in the data set on E. coli UPEC strain C189 is “** (exhibited a 1.1-2.0 log decrease in CFU/g)”.
Regarding `O=C(Nc1ccc(-c2nc3ccc([N+](=O)[O-])cc3n2O)cc1)c1ccc(F)cc1` [C], the EC50 was 10 to 25 µM at LcrF (VirF); 1 to 4.9 µM at Rob; 1 to 4.9 µM on Rma; 1 to 4.9 µM on SoxS (Table 10, read-out: SoxS EC50); less than 10 µM at ExsA [1] (Table 7, cell-free system); 1 to 4.9 µM on ExsA [1] (Table 10). Moreover, the activity at 50 µg/mL in the data set on Y. pseudotuberculosis was 75 to 99%.
On to `Cc1ccc(COn2c(-c3ccccc3)nc3ncccc32)cc1` [GM], for which the “Difference between vehicle treated and compound dose group (kidneys harvested 5 days post infection)” value in [2] (single dose at the time of infection, 100 mg/kg, p<0.003) was “statistically significant difference”. For the same molecule, the “Difference between untreated (vehicle) and compound dose groups (kidneys harvested 5 days post infection)” value in [2] (subcutaneous at 0, 6, 24, 30, 48, 54, 72 and 96 hours post-infection, 1, 5 and 20 mg/kg, p<0.05) is given as “statistically significant difference”.
Take `O=C(Nc1ccc(-c2nc3ccc([N+](=O)[O-])cc3n2O)cc1)c1ccc(-n2ccnc2)cc1` [I]: the EC50 at LcrF (VirF) is less than 10 µM; on ExsA [1] (Table 7, cell-free system), 10 to 25 µM. The “survival at 48 hours post infection” value with P. aeruginosa PA103 came out at 50%.

B1: LANCE target DNA (SEQ ID NO. 1) (dsDNA)
DNA 1: CCGATTTAGCAAAACGTGGCATCGGTC
DNA 2: GACCGATGCCACGTTTTGCTAAATCGG
B1: the binding result in the data set with ExsA [3] is “binds”.
